Patent publication US10308631B2, “Selective anti-cancer compounds” (NATIONAL UNIVERSITY OF SINGAPORE, priority 2015, dated 2019)

Columns and labels:
[1] = test system: HeLa cells (mitotic spindles, β-tubulin/DAPI); assay: Immunofluorescence analysis of mitotic spindles and chromosomes; type: cell-based, human; conditions: 6 h, Compound 1 2.5 μM, CQ 15 or 25 μM
Description: HeLa cells, treated with Compound 1 (a131) at 2.5 μM (FIG. 3b), chloroquine (CQ) at 15 μM (FIG. 3c) or 25 μM (FIG. 3d), or DMSO (FIG. 3a) for 6 h, were fixed in methanol and subjected to immunofluorescence analysis using antibodies against β-tubulin to visualize proper formation of mitotic spindles. The condensed mitotic chromosomes were visualized by counterstaining with DAPI. Only Compound 1 (a131)-treated HeLa cells arrested in mitosis with misaligned chromosomes and disorganized spindles (FIG. 3b). The bars in FIGS. 3a-d represent 5 μm in length.
To confirm the inhibitory mitotic progression ability, HeLa cervical cancer cells as cultured above were treated with Compound 1 (2.5 μM, DMSO), CQ (15 or 25 μM, DMSO) or DMSO for 6 h. The treated cells were fixed in methanol and subjected to immunofluorescence analysis using antibodies against β-tubulin (Abcam, Cat#ab52623) to visualize proper formation of mitotic spindles. The condensed mitotic chromosomes were visualized by counterstaining with DAPI.

[2] = test system: non-transformed normal BJ cells; assay: BrdU incorporation and FACS analysis (cell cycle arrest); type: cell-based, human
Description: A: is output from a FACS analysis of isogenic-non-transformed, without (panels a-c) (WT) or with (panels d-f) shRNA-mediated knockdown of p53 (p53KD), and oncogene-transformed BJ cells (panels g-i), each treated with 0, 5 or 2.5 μM Compound 1 (a131) for 24 h. Cells were doubly stained with PI (horizontal axis) and BrdU (vertical axis). The BrdU-positive population in panels a-c are indicated as arrows. B: is a diagrammatic representation of an immunoblot analysis showing isogenic non-transformed (normal) and oncogene-transformed BJ cells (transformed) treated with Compound 1 (a131) at 0, 2.5 or 5 μM for 24 h or 48 h. Cells were harvested and total lysates were analysed by detecting p53 and p21. Antibodies raised against β-actin were used as an internal loading control. C and D are histograms showing the percentage of bromodeoxyuracil (BrdU)-positive non-transformed (normal) BJ cells. C: Cells were treated with Group 1 Compound 1 (a131) at 2.5 and 5 μM, Compound 23 (b36) at 2.5 and 5 μM, and Compound 21 (b35) at 5 μM, and Group 2 Compound 25 (a166) at 2.5 and 5 μM, for 24 h. Cells were doubly stained with propidium iodide (PI) and BrdU, and subjected to FACS analysis. The BrdU-positive population are plotted as bars. D: Cells were treated with Group 1 Compound 1 (a131), Compound 16 (b5), and Compound 17 (b9); Group 2 Compound 13 (b12), Compound 12 (b16) and Compound 25 (a166), and Group 3 Compound 3 (a159) at 5 μM for 48 h. The percentage of cells with BrdU positive population, in comparison with DMSO control vehicle, is shown with mean values±S.D. (n=3).
Isogenic non-transformed and oncogene-transformed BJ cells (cultured as in Biology Example 3) were treated with Compound 1 at final concentrations of 2.5 and 5 μM for 24 h. The treated cells were then treated with 30 μM final concentration of 5-bromo-2′-deoxyuridine (BrdU, SIGMA) for 1 h to detect DNA synthesis as a marker for cell proliferation. Subsequently, the cells were fixed in EtOH at 4° C. overnight and permeabilized with 2N HCl/0.5% Triton X-100 for 30 min. The cells were then treated with 0.1M sodium tetraborate for 2 min and stained with anti-BrdU antibody (Invitrogen, Cat#B35129) for 60 min, followed by a 30 min treatment with 20 μg/mL of propidium iodide (PI) and 10 μg/mL RNaseA.
Furthermore, the abilities of additional five (5) Compounds to arrest cells at the stage of G1/S phase of the cell cycle were evaluated. […] The abilities of these Compounds to arrest cells at the stage of G1/S phase of the cell cycle were then measured by using BrdU incorporation assay and FACS analysis. The percentage of cells with BrdU positive population in comparison with DMSO control vehicle was determined and plotted with mean values±S.D. (n=3).

[3] = test system: HCT-15 human colon adenocarcinoma xenografts; assay: Tumour xenograft efficacy, tumour volume; type: in vivo, mice; conditions: HCT15 xenografts; PO or IP twice a day, 12 days; vs vehicle
Description: A, B: is a graphical representation of tumour volumes estimated periodically as indicated. Mice bearing established tumour xenografts using HCT15 or MDA-MB-231 cells were treated orally (PO) or intraperitoneally (IP) twice a day with the indicated doses of Compound 1 or Compound 16 for 12 or 15 days. Paclitaxel (PTX) was given intravenously at dose of 40 mg/kg, 3 times every 4 days. Error bars show ±S.D. from mean tumour volumes obtained from 6 mice. Student's t-test was performed to determine the statistical significance (*=p<0.005). C: is a bar graph showing quantification of cells (n>100 per condition) with misaligned chromosomes and multipolar mitotic-spindles. […] tumour sections treated with Compound 16 (80 mg/kg) or control vehicle for 12 days were stained with anti-β-tubulin antibodies and DAPI. The percentage of cells with misaligned chromosomes and multipolar mitotic-spindles was quantified and plotted with mean values±S.D.
Mice bearing established tumor xenografts using HCT15 or MDA-MB-231 cells were treated orally (PO) or intraperitoneally (IP) twice a day with the indicated doses of Compound 1 or its derivative Compound 16 (b5) for 12 or 15 days, respectively. For comparison, paclitaxel (PTX) was given intravenously to mice bearing established tumour xenografts using HCT15 at dose of 40 mg/kg, 3 times every 4 days.

Compound	mitotic arrest, chromosome alignment and mitotic spindles [1]	BrdU-positive cell population ([2]; 24 h, 2.5 and 5 μM (FIG. 9A, 9C))	anti-tumour effect (tumour volume) [3]	arrest at the G1/S phase of the cell cycle (BrdU incorporation) ([2]; 5 μM, 48 h (FIG. 9D))
N#C/C(=C\c1cccc2cnccc12)c1c[nH]c2ccccc12 [Compound 1, (Z)-2-(1H-indol-3-yl)-3-(isoquinolin-5-yl)acrylonitrile]	arrested in mitosis with massively misaligned chromosomes and disorganized mitotic spindles	markedly decreased the number of BrdU-positive non-transformed normal BJ cells	showed marked anti-tumour effects	
N#C/C(=C\c1cccc2ncccc12)c1c[nH]c2ccccc12 [Compound 3, (Z)-2-(1H-indol-3-yl)-3-(quinolin-5-yl)acrylonitrile]				failed to do so
CN1CCN(CC(=O)n2cc(/C(C#N)=C/c3cccc4cnccc34)c3ccccc32)CC1 [Compound 16, (Z)-3-(isoquinolin-5-yl)-2-(1-(2-(4-methylpiperazin-1-yl)acetyl)-1H-indol-3-yl)acrylonitrile]			showed marked anti-tumour effects	
